Assay [1] addresses T1, R120E hDAAO variant (Homo sapiens, UniProt P14920, R120E).
T1 construct: His-tag (N); made in house; host or cells: E. coli BL21 (DE3) Star
The assay is described as follows: FAD and ligand binding by quenching of protein fluorescence, R120E hDAAO. On the procedure: (§1) Protein fluorescence spectra were recorded between 300 and 400 nm, with excitation at 280 nm using a Jasco FP-750 instrument (excitation slit of 10 nm; emission slit of 5 nm) in 10 mM potassium phosphate, pH 8.0, 1% (v/v) glycerol, 5 mM 2-mercaptoethanol, […]

In assay [2] the target is wild-type hDAAO. As to conditions: cited from earlier work.
Assay [3] concerns the target T2, R120L hDAAO variant (Homo sapiens, UniProt P14920, R120L).
T2 construct: His-tag (N); made in house; host or cells: E. coli BL21 (DE3) Star
Briefly: FAD and ligand binding by quenching of protein fluorescence, R120L hDAAO. On the procedure: as §1

Assay [4] relates to wild-type hDAAO. Set-up: method as in Molla et al. (2006) and Murtas et al. (2017). As to conditions: air saturation, 25°C, pH 8.5, ref Molla et al. (2006) and Murtas et al. (2017), cited from earlier work; for Km: read-out: apparent Km.
Assay [5] addresses T2, R120L hDAAO variant. The assay is described as follows: Apparent kinetic parameters on D-amino acids (oxygen electrode), R120L hDAAO. It is filed as biochemical. The following applies: air saturation, 25°C, pH 8.5, 0.2 mM FAD. On the procedure: (§2) The kinetic parameters were determined on different D-amino acids, employing increasing substrate concentrations (Molla et al., [2000], [2006]). The apparent kinetic parameters were calculated using the initial reaction rate according to a Michaelis–Menten equation using the Kaleidagraph software (Synergy Software, Reading, PA, USA).
(§3) The apparent kinetic parameters were calculated according to a Michaelis–Menten equation using the initial velocity values determined at increasing D-amino acid concentrations and a fixed O2 concentration (air saturation) at pH 8.5 and 25°C, in the presence of 0.2 mM FAD to avoid apoprotein formation for wild-type hDAAO.

The target in assay [6] is T1, R120E hDAAO variant. The assay is described as follows: Apparent kinetic parameters on D-amino acids (oxygen electrode), R120E hDAAO. Format: biochemical. As to conditions: air saturation, 25°C, pH 8.5, 0.2 mM FAD. On the procedure: as §2, §3
The mark [7] stands for this setting: read-out: Benzoate Kd, first saturation phase.
Setting [8] is: read-out: Benzoate Kd, second saturation phase.

Where two headings read alike, the source gives them in different places.

The text below walks through data of paper PMC6862323, “Substitution of Arginine 120 in Human D-Amino Acid Oxidase Favors FAD-Binding and Nuclear Mistargeting” (Frontiers in Molecular Biosciences, 2019).

In general, Km refers to the substrate concentration at which the rate is half of its maximum.

T1 sequence (P14920 whole entry R120E): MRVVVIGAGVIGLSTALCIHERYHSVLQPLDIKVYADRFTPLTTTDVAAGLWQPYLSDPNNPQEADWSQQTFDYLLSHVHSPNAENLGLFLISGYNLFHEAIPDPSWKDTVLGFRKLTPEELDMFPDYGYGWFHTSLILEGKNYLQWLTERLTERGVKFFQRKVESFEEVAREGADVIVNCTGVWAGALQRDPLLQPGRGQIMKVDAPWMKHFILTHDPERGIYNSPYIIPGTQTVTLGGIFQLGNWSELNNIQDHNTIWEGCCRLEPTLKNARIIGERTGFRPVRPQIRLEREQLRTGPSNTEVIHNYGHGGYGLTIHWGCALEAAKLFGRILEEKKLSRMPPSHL
T2 sequence (P14920 whole entry R120L): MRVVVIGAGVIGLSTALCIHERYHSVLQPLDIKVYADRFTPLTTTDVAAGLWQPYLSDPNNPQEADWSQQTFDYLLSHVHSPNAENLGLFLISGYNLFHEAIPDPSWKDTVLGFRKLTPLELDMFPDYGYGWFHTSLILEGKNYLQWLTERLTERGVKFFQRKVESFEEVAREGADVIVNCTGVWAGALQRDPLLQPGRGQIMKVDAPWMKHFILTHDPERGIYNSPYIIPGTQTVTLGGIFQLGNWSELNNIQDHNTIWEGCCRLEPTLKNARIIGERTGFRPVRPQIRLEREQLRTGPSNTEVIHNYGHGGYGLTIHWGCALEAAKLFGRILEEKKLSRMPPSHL

For `O=C(O)c1ccccc1` [Benzoate, benzoate], the Kd at R120E hDAAO variant [1] (setting [7]) was 0.16 ± 0.01 µM; on R120E hDAAO variant [1] (setting [8]), 7980 µM; at R120E hDAAO variant [1] (read-out: Kd for the second phase of binding), about 8000 µM; on wild-type hDAAO [2] (ref Murtas et al. (2017), read-out: Benzoate Kd, first saturation phase) it was 0.33 ± 0.04 µM; at wild-type hDAAO [2] (ref Murtas et al. (2017), read-out: Benzoate Kd, second saturation phase), 2590 µM; on wild-type hDAAO [2] (ref Murtas et al., 2017, read-out: Kd for the second phase of binding), 2600 µM. Moreover, the Kd on R120L hDAAO variant [3] (setting [7]) was 0.27 ± 0.12 µM; on R120L hDAAO variant [3] (setting [8]), 6200 µM.

Regarding `C[C@@H](N)C(=O)O` [D-Ala, D-alanine], in the assay with wild-type hDAAO [4], the apparent kcat is 5.2 ± 0.1 s⁻¹ and the Km was 1300 ± 200 µM.

Consider `N[C@H](CS)C(=O)O` [D-Cys, D-cysteine], for which the Michaelis-Menten constant (Km) is 700 ± 100 µM on R120L hDAAO variant [5], 600 ± 100 µM at R120E hDAAO variant [6] and 600 ± 100 µM with wild-type hDAAO [4]. Besides, the apparent kcat at R120L hDAAO variant [5] was 15.6 ± 0.7 s⁻¹; on R120E hDAAO variant [6], 9.9 ± 0.5 s⁻¹; in the assay on wild-type hDAAO [4], 8.6 ± 0.2 s⁻¹.

For `N[C@H](CO)C(=O)O` [D-Ser, D-serine], the Km was 26700 ± 4500 µM at R120L hDAAO variant [5], 17600 ± 3500 µM at R120E hDAAO variant [6] and 7500 ± 500 µM in the assay on wild-type hDAAO [4]. Further, the apparent kcat is 11.3 ± 0.4 s⁻¹ on R120L hDAAO variant [5], 8.5 ± 0.4 s⁻¹ on R120E hDAAO variant [6] and 3.0 ± 0.1 s⁻¹ in the assay with wild-type hDAAO [4].
